Patent US10688093B2, “Methods, compositions, and uses of novel Fyn kinase inhibitors” (priority 2015, dated 2020)

Target: full-length recombinant human FYN A (Homo sapiens (Human), UniProt P06241)
Assay: ADP-Glo Kinase Assay of FYN kinase inhibition
Assay type: biochemical
Conditions: secondary screen, re-synthesized and expanded compounds
How it was run: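 GST-tagged full-length FYN A (baculovirus, Sf9) at 3 pg preincubated 30 min RT with compound (10-point 3-fold series from 10 μM) in Tris pH 7.5/MgCl2 buffer. 12-mer tyrosine peptide plus 12.5 pmol ATP added, 90 min RT; ADP measured by ADP-Glo luminescence, IC50 from dose-response.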

Chain of full-length recombinant human FYN A (P06241 whole entry): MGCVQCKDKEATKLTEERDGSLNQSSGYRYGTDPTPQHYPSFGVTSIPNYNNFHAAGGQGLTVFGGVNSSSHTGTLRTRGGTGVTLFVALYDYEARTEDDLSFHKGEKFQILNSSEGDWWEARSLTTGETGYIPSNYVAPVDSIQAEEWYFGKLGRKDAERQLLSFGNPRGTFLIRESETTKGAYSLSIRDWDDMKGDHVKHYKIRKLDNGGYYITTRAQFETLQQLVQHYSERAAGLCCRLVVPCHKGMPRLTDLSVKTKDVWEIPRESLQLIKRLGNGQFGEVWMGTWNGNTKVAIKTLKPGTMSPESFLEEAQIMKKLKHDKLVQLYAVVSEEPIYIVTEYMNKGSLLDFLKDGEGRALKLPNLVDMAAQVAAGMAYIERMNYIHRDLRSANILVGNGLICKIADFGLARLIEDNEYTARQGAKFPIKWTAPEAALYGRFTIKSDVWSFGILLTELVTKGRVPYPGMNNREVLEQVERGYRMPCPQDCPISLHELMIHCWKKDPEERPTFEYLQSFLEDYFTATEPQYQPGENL

| IC50 [nM] | Compound |
| --- | --- |
| 1090 | NC(=O)c1ccc(-c2cnc(N)c(-c3ccc(O)cc3)c2)cc1 [BF000313559, 4-[6-amino-5-(4-hydroxy-phenyl)-3-pyridyl]-benzamide] |
| 898 | CC(=O)Nc1cccc(-c2cnc(N)c(-c3ccc(O)cc3)c2)c1 [BF000313562, N-[3-[6-amino-5-(4-hydroxy-phenyl)-3-pyridyl]-phenyl]-acetamide] |
| 1550 | CS(=O)(=O)c1ccc(-c2cnc(N)c(-c3ccc(O)cc3)c2)cc1 [BF000313563, 4-[2-amino-5-(4-methyl-sulfonyl-phenyl)-3-pyridyl)-phenol] |
| 624 | COc1cc(-c2cnc3cnc(-c4cnn(C)c4)cn23)ccc1O [BF000333452, 2-methoxy-4-[6-(1-methyl-pyrazol-4-yl)-imidazo[1,2-a]pyrazin-3-yl]phenol] |
| 705 | CN(C)CCCNC(=O)c1ccc(-c2cn3c(-c4ccc(O)cc4)cnc3cn2)cc1 [BF000333874, N-[3-(dimethyl-amino)-propyl]-4-[3-(4-hydroxy-phenyl)-imidazo[1,2-a]pyrazin-6-yl]-benzamide] |
| 486 | CN(C)CCNC(=O)c1ccc(-c2cn3c(-c4ccc(O)cc4)cnc3cn2)cc1 [BF000333881, N-[2-(dimethyl-amino)-ethyl]-4-[3-(4-hydroxy-phenyl)-imidazo[1,2-a]pyrazin-6-yl]-benzamide] |
| 740 | O=C(NCCO)c1ccc(-c2cn3c(-c4ccc(O)cc4)cnc3cn2)cc1 [BF000333882, N-(2-hydroxy-ethyl)-4-[3-(4-hydroxy-phenyl)-imidazo[1,2-a]pyrazin-6-yl]benzamide] |
| 222 | CN(C)CCNC(=O)c1ccc(-c2cn3c(-c4ccc(Oc5ccccc5)cc4)cnc3cn2)cc1 [BF000334031, N-[2-(dimethyl-amino)ethyl]-4-[3-(4-phenoxy-phenyl)-imidazo[1,2-a]pyrazin-6-yl]-benzamide] |
| 60.9 | COc1cc(-c2cc(-c3ccc(N4CCNCC4)cc3)cnc2N)ccc1O [BF000707279, 4-[2-amino-5-(4-piperazin-1-ylphenyl)-3-pyridyl]-2-methoxy-phenol] |
| 521 | CN1CCN(c2ccc(-c3cnc(N)c(-c4ccc(O)cc4)c3)cc2)CC1 [BF000710044, 4-[2-amino-5-[4-(4-methyl-piperazin-1-yl)phenyl]-3-pyridyl]-phenol] |
| 437 | COc1cncc(-c2cnc3sc(NCc4cccs4)nn23)c1 [BF000714968, 5-(5-methoxy-3-pyridyl)-N-(2-thienyl-methyl)-imidazo[2,1-b][1,3,4]-thiadiazol-2-amine] |
| 288 | CN(C)C(=O)c1cccc(-c2cnc3sc(NC4CCC(O)CC4)nn23)c1 (stereo not shown) [BF000717418, 3-[2-[(4-hydroxy-cyclohexyl)-amino]-imidazo[2,1-b][1,3,4]-thiadiazol-5-yl]-N,N-dimethyl-benzamide] |
| 1170 | OCc1cccc(-c2cnc3ccc(-c4cccc(O)c4)nn23)c1 [BF000726195] |
| 313 | COc1ccc(-c2ccc3ncc(-c4cccc(NC(C)=O)c4)n3n2)cc1OC [BF000726345, N-[3-[6-(3,4-dimethoxy-phenyl)-imidazo[1,2-a]pyridazin-3-yl]phenyl]-acatamide] |
| 1520 | CC(=O)Nc1cccc(-c2ccc3ncc(-c4cccc(CO)c4)n3n2)c1 [BF000726367, N-[3-[3-[3-(hydroxy-methyl)phenyl]-imidazo[1,2-b]pyridazin-6-yl]phenyl]-acetamide] |

More lines, now with the values behind:

| Compound | IC50 [nM] |
| --- | --- |
| COc1cc(-c2cc(-c3cccc(C(=O)NCCO)c3)cnc2N)cc(OC)c1OC [BF000312542, 3-[6-amino-5-(3,4,5-trimethoxy-phenyl)-3-pyridyl]-N-(2-hydroxy-ethyl)-benzamide] | 1000 |
| COc1cc(-c2cc(-c3ccc(S(C)(=O)=O)cc3)cnc2N)cc(OC)c1OC [BF000312544, 5-(4-methyl-sulfonyl-phenyl)-3-(3,4,5-trimethoxy-phenyl)-pyridin-2-amine] | 674 |
| COc1cc(-c2cc(-c3cccc(NS(C)(=O)=O)c3)cnc2N)cc(OC)c1OC [BF000312545, N-[3-[6-amino-5-(3,4,5-trimethoxy-phenyl)-3-pyridyl]-phenyl]-methane-sulfonamide] | 562 |
| COc1cc(-c2cc(-c3ccc(N4CCN(C)CC4)cc3)cnc2N)ccc1O [BF000313028, 4-[2-amino-5-[4-(4-methylpiperazin-1-yl)phenyl]-3-pyridyl]-2-methoxy-phenol] | 121 |
| COc1cc(-c2cc(-c3cc(OC)c(OC)c(OC)c3)cnc2N)ccc1O [BF000313035, 4-[2-amino-5-(3,4,5-trimethoxy-phenyl)-3-pyridyl]-2-methoxy-phenol] | 116 |
| COc1cc(-c2cc(-c3ccc(C(N)=O)cc3)cnc2N)ccc1O [BF000313038, 4-[6-amino-5-(4-hydroxy-3-methoxy-phenyl)-3-pyridyl]-benzamide] | 214 |
| COc1cc(-c2cc(-c3ccc(S(C)(=O)=O)cc3)cnc2N)ccc1O [BF000313040, 4-[2-amino-5-(4-methyl-sulfolyl-phenyl)-3-pyridyl]-2-methoxy-phenol] | 316 |
| COc1cc(-c2cnc(N)c(-c3ccc(O)cc3)c2)cc(OC)c1OC [BF000313556, 4-[2-amino-5-(3,4,5-trimethoxy-phenyl)-3-pyridyl]-phenol] | 288 |
| CN(C)C(=O)c1cccc(-c2cn3c(-c4ccc(O)cc4)cnc3cn2)c1 [BF000333343, 3-[3-(4-hydroxy-phenyl)-imidazo[1,2-a]pyrazin-6-yl]-N,N-dimethyl-benzamide] | 871 |
| CN1CCN(c2ccc(-c3cn4c(-c5ccc(O)cc5)cnc4cn3)cc2)CC1 [BF000333878, 4-[6-[4-(4-methyl-piperazin-1-yl)phenyl]-imidazo[1,2-a]pyrazin-3-yl]phenol] | 465 |
| COc1cc(-c2cnc3cnc(-c4ccc(C(=O)NCCCN(C)C)cc4)cn23)ccc1O [BF000334019, N-[3-(dimethyl-amino)-propyl]-4-[3-(4-hydroxy-3-methoxy-phenyl)-imidazo[1,2-a]pyrazin-6-yl]benzamide] | 647 |
| COc1cc(-c2cnc3cnc(-c4cccc(C(=O)NCCO)c4)cn23)ccc1O [BF000334020, N-(2-hydroxy-ethyl)-3-[3-(4-hydroxy-3-methoxy-phenyl)-imidazo[1,2-a]pyrazin-6-yl]benzamide] | 1280 |
| COc1cc(-c2cnc3cnc(-c4ccc(C(=O)NCCN(C)C)cc4)cn23)ccc1O [BF000334023, N-[2-(dimethyl-amino)ethyl]-4-[3-(4-hydroxy-3-methoxy-phenyl)-imidazo[1,2-a]pyrazin-6-yl]benzamide] | 337 |
| O=C(NCCO)c1ccc(-c2cn3c(-c4ccc(Oc5ccccc5)cc4)cnc3cn2)cc1 [BF000334032, N-(2-hydroxy-ethyl)-4-[3-(4-phenoxy-phenyl)-imidazo-[1,2-a]-pyrazin-6-yl]benzamide] | 464 |
| c1ccc(CNc2nn3c(-c4cccnc4)cnc3s2)cc1 [BF000714845, N-benzyl-5-(3-pyridyl)-imidazo[2,1-b][1,3,4]-thiadiazol-2-amine] | 634 |
| CN(C)C(=O)c1cccc(-c2cnc3sc(NCc4ccccc4)nn23)c1 [BF000714847, 3-[2-(benzyl-amino)-imidazo[2,1-b][1,3,4]-thiadiazol-5-yl]-N,N-dimethyl-benzamide] | 1230 |
| COc1cncc(-c2cnc3sc(NCc4ccccc4)nn23)c1 [BF000714862, N-benzyl-5-(5-methoxy-3-pyridyl)-imidazo[2,1-b][1,3,4]-thiadiazol-2-amine] | 217 |
| COc1cncc(-c2cnc3sc(NCC4CCOCC4)nn23)c1 [BF000714923, 5-(5-methoxy-3-pyridyl)-N-(tetra-hydropyran-4-ylmethyl)-imidazo[2,1-b][1,3,4]-thiadiazol-2-amine] | 293 |
| COc1cncc(-c2cnc3sc(NCc4ccc5c(c4)OCO5)nn23)c1 [BF000714981, N-(1,3-benzodioxol-5-ylmethyl)-5-(5-methoxy-3-pyridyl)-imidazo[2,1-b][1,3,4]-thiadiazol-2-amine] | 289 |
| CN(C)C(=O)c1cccc(-c2cnc3sc(NCC4CCOCC4)nn23)c1 [BF000715802, N,N-dimethyl-3-[2-(tetra-hydropyran-4-ylmethyl-amino)-imidazo[2,1-b][1,3,4]-thiadiazol-5-yl]benzamide] | 1360 |
| COc1ccc(-c2cnc3sc(NC4CCC(O)CC4)nn23)cc1OC (stereo not shown) [BF000717406, 4-[[5-(3,4-dimethoxy-phenyl)-imidazo[2,1-b][1,3,4]-thiadiazol-2-yl]amino]-cyclohexanol] | 440 |
| COc1cc(-c2cnc3sc(NCC4CCOCC4)nn23)ccc1O [BF000717555, 2-methoxy-4-[2-(tetrahydro-pyran-4-ylmethyl-amino)-imidazo[2,1-b][1,3,4]-thiadiazol-5-yl]phenol] | 710 |
| OCCCNc1ccc2ncc(-c3ccncc3)n2n1 [BF000722253, 3-[[3-(4-pyridyl)-imidazo[1,2-b]pyridazin-6-yl]amino]-propan-1-ol] | 538 |
| COc1cc(-c2ccc3ncc(-c4cccc(NC(C)=O)c4)n3n2)ccc1O [BF000726183, N-(3-[6-(4-hydroxy-3-methoxy-phenyl)-imidazo[1,2-b]pyridazin-3-yl]phenyl]-acatamide] | 167 |
| CC(=O)Nc1cccc(-c2ccc3ncc(-c4cccc(NC(C)=O)c4)n3n2)c1 [BF000726346, N-[3-[3-(3-acetamido-phenyl)-imidazo[1,2-b]pyridazin-6-yl]phenyl]-acetamide] | 648 |
| Oc1cccc(-c2cnc3ccc(-c4ccncc4)nn23)c1 [BF000726352, 3-[6-(4-pyridyl)-imidazo[1,2-b]pyridazin-3-yl]phenol] | 342 |
| OCc1cccc(-c2cnc3ccc(-c4ccncc4)nn23)c1 [BF000726364, [3-[6-(4-pyridyl)-imidpzo[1,2-b]pyridazin-3-yl]phenyl]-methanol] | 973 |
| COc1ccc(-c2ccc3ncc(-c4cccc(CO)c4)n3n2)cc1OC [BF000726366, [3-[6-(3,4-dimethoxy-phenyl)-imidazo[1,2-b]pyridazin-3-yl]phenyl]-methanol] | 893 |
